# Experimental data from patent publication US20170304228A1, “NEW INDICATION OF CINACALCET HCL PHARMACEUTICAL COMPOSITION FOR TREATING CANCER” (LAUNX BIOMEDICAL CO., LTD., priority 2014, published 2017).
# Several values for one entry are separate records, joined by “and”; a condition that tells them apart may be missing. Equal entries are not always repeated. Structures can show the parent of a compound that is named as a salt. Where two headings read alike, the source gives them in different places.
# Assays:
# LNCap = test: Cell viability analysis (WST-1), LNCap; type: cell-based; conditions: Homo sapiens, 72 hours, Average of tests, read-out: survival rate (viability) of cells
# Description: (§1) The cell numbers were counted and reseed as 2×10^6 in culture plate/flask. Then, the culture medium were added to a volume of 10 ml, and the cells were cultured for 2-3 days. Then, the cells were suspended for loading into 96-well plates. The number of cells was 3000 and the volume of the culture medium was 100 μl each well.
# Removing the original culture medium from 96-well plate. Then add 100 μl of commercially drug at a concentration of 10 μM per well. After 72 hours, add the diluted WST-1 reagent to the well with 100 μl/well, and the diluted WST-1 reagent was acquired from the dilution of 9:1 medium and WST-1 stock reagent. Finally, the total volume of each well was 200 μl/well. Culture the 96-well plate at 37° C. for 30 to 90 minutes. Detecting and calculate the survival rate of each cancer cells with an ELISA reader at OD450 nm. The lower viability of cancer cells represents better inhibition effect via the Cinacalcet HCl drug. […]
# (§2) This inhibition test of Cinacalcet HCl on endocrine-related cancer cells were using prostate cancer cell lines PC-3 and LNCap (Table 6), breast cancer cell lines MCF7 and MDA-MB-231 (Table 7), and ovarian cancer cell lines NIH-OVCAR-3 and TOV-21G (Table 8). The inhibitory tests of Cinacalcet HCl were performed 4 times for each cell lines and then the average value of the inhibitory tests was calculated.
# normal cells = test: Toxicity to normal cells; type: cell-based
# Description: (§3) Removing the original culture medium from 96-well plate. Then add 100 μl of commercially drug at a concentration of 10 μM per well. After 72 hours, add the diluted WST-1 reagent to the well with 100 μl/well, and the diluted WST-1 reagent was acquired from the dilution of 9:1 medium and WST-1 stock reagent. Finally, the total volume of each well was 200 μl/well. Culture the 96-well plate at 37° C. for 30 to 90 minutes. Detecting and calculate the survival rate of each cancer cells with an ELISA reader at OD450 nm. The lower viability of cancer cells represents better inhibition effect via the Cinacalcet HCl drug. Otherwise, the higher viability of cancer cells represents worse inhibition effect via the Cinacalcet HCl drug.
# This inhibition test of Cinacalcet HCl on normal cells were using normal kidney cell line HEK293 (Table 16), normal pulmonary epithelial cell lines […] BEAS-2B (Table 17). The inhibitory tests of Cinacalcet HCl were performed 4 times for each cell lines and then the average value of the inhibitory tests was calculated The results were shown in Tables 16 and Tables 17.
# colorectal cancer cells = test: Summary of cell viability, colorectal cancer cells; type: cell-based; conditions: 72 hours, read-out: Inhibitory effect
# Description: as §1, §3
# Cinacalcet HCl is having different inhibitory effect on different tumor cell type even in the same cancer. […] (FIG. 1)
# [1] = test system: gastric cancer cells (AGS); test: Animal model test of gastric cancer, tumor size; type: in vivo, mice
# Description: In this invention, the female mice were(BALB/cAnN.Cg-Foxnl™/CrlNarl) and purchased from National Laboratory Animal Center (Taiwan). The weight of the mice were 21±1 g. These mice were subcutaneously injected with gastric cancer cells (AGS) and then put these mice into different cages at random. The drug test experiment was divided into three groups, include “control group”, “low dose group (100 mg/kg/day)”, “high dose group (200 mg/kg/day)”. These mice were then injected test drug intraperitoneally once daily […]. The tumor sizes and body weight were measured twice a week. The tumor sizes were measured and calculated by formula: (L×W^2)/2. L represents the tumor longest length. W represents the tumor shortest diameter.
# A375 = test: Cell viability analysis (WST-1), A375; type: cell-based; conditions: Homo sapiens, read-out: survival rate (viability) of cells
# Description: as §1, §3
# (§4) This inhibition test of Cinacalcet HCl on other cancer cells were using osteosarcoma cell line U2OS (Table 14), skin cancer cell lines A375 and BCC (Table 15). The inhibitory tests of Cinacalcet HCl were performed 4 times for each cell lines and then the average value of the inhibitory tests was calculated.
# NIH-OVCAR-3 = test: Cell viability analysis (WST-1), NIH-OVCAR-3; type: cell-based; conditions: Homo sapiens, read-out: survival rate (viability) of cells
# Description: as §1, §3, §2
# U2OS = test: Cell viability analysis (WST-1), U2OS; type: cell-based; conditions: Homo sapiens, read-out: survival rate (viability) of cells
# Description: as §1, §3, §4
# T24 = test: Cell viability analysis (WST-1), T24; type: cell-based; conditions: Homo sapiens, read-out: survival rate (viability) of cells
# Description: as §1, §3
# (§5) This inhibition test of Cinacalcet HCl on abdominal-related cancer cells were using bladder cancer cell line TSGH and T24 (Table 3), cervical cancer cell lines HeLa and C-33A (Table 4), renal cancer cell line 786-O (Table 5). The inhibitory tests of Cinacalcet HCl were performed 4 times for each cell lines and then the average value of the inhibitory tests was calculated.
# MCF7 = test: Cell viability analysis (WST-1), MCF7; type: cell-based; conditions: Homo sapiens, read-out: survival rate (viability) of cells
# Description: as §1, §3, §2
# C-33A = test: Cell viability analysis (WST-1), C-33A; type: cell-based; conditions: Homo sapiens, read-out: survival rate (viability) of cells
# Description: as §1, §3, §5
# [2] = Low dose (100 mg/kg/day) intraperitoneally, First measurement, average
# [3] = Low dose (100 mg/kg/day) intraperitoneally, First measurement, single mice A, B, C, hydrochloride, 100 mg/kg/day
# [4] = Low dose (100 mg/kg/day) intraperitoneally, Fourth measurement, average
# [5] = Low dose (100 mg/kg/day) intraperitoneally, Fourth measurement, single mice A, B, C, hydrochloride, 100 mg/kg/day
# [6] = Low dose (100 mg/kg/day) intraperitoneally, Second measurement, average
# [7] = Low dose (100 mg/kg/day) intraperitoneally, Second measurement, single mice A, B, C, hydrochloride, 100 mg/kg/day
# [8] = Low dose (100 mg/kg/day) intraperitoneally, Third measurement, average
# [9] = both low dose and high dose, FIG. 3
# [10] = high dose (200 mg/kg/day) intraperitoneally, First measurement, average
# [11] = high dose (200 mg/kg/day) intraperitoneally, First measurement, single mice A, B, C, hydrochloride, 200 mg/kg/day
# [12] = high dose (200 mg/kg/day) intraperitoneally, Fourth measurement, average
# [13] = high dose (200 mg/kg/day) intraperitoneally, Second measurement, average
# [14] = high dose (200 mg/kg/day) intraperitoneally, Second measurement, single mice A, B, C, hydrochloride, 200 mg/kg/day
# [15] = high dose (200 mg/kg/day) intraperitoneally, Third measurement, average
# [16] = high dose (200 mg/kg/day) intraperitoneally, Third measurement, single mice A, B, C, hydrochloride, 200 mg/kg/day
compound,measurement,setting,value
"C[C@@H](NCCCc1cccc(C(F)(F)F)c1)c1cccc2ccccc12 [Cinacalcet HCl, Cinacalcet hydrochloride]",viability at 10 µM,LNCap,52.6%
same,toxicity to normal cells,normal cells,no toxicity or had little toxicity
same,viability at 10 µM,colorectal cancer cells,74.4%
same,tumor volume,[1]; [2],592 mm3
same,tumor volume growth,[1]; [2],592 mm3
same,tumor longest length,[1]; [3],11 mm and 13 mm and 14 mm
same,tumor width,[1]; [3],8 mm and 12 mm
same,tumor volume,[1]; [4],562.1667 mm3
same,tumor volume growth,[1]; [4],−240.3333 mm3
same,tumor longest length,[1]; [5],10 mm and 14 mm and 13 mm
same,tumor width,[1]; [5],7 mm and 13 mm
same,tumor volume,[1]; [6],277.5 mm3
same,tumor volume growth,[1]; [6],−314.5 mm3
same,tumor longest length,[1]; [7],8 mm and 16 mm and 9 mm
same,tumor width,[1]; [7],5 mm and 8 mm and 7 mm
same,tumor volume,[1]; [8],802.5 mm3
same,tumor volume growth,[1]; [8],525 mm3
same,inhibition effect on tumor cells,"[1]; both low dose and high dose, FIG. 2",significant inhibition effect
same,tumor volume,[1]; [9],can also reduce the tumor volume
same,tumor volume growth,[1]; [9],effectively slow down the tumor volume growth
same,tumor volume,[1]; [10],81.17 mm3
same,tumor volume growth,[1]; [10],81.17 mm3
same,tumor longest length,[1]; [11],7 mm and 6 mm
same,tumor width,[1]; [11],5 mm and 6 mm and 4 mm
same,tumor volume,[1]; [12],22.33 mm3
same,tumor volume growth,[1]; [12],−56.8333 mm3
same,tumor volume,[1]; [13],131.1667 mm3
same,tumor volume growth,[1]; [13],50 mm3
same,tumor longest length,[1]; [14],7 mm and 6 mm
same,tumor width,[1]; [14],7 mm and 5 mm
same,tumor volume,[1]; [15],79.17 mm3
same,tumor volume growth,[1]; [15],−52 mm3
same,tumor width,"[1]; high dose (200 mg/kg/day) intraperitoneally, Third measurement, single mice A, B, C",5 mm
same,tumor longest length,[1]; [16],7 mm and 6 mm
same,tumor volume,[1]; [16],87.5 mm3 and 75 mm3
same,"inhibition of tumor growth, high doses compared with low dose","[1]; high doses, FIG. 3",better effect to inhibit tumor growth
same,viability at 10 µM,"A375; A-375, 10 μM, 72 hours, test 0602-30 min",117%
same,viability at 10 µM,"A375; A-375, 10 μM, 72 hours, test 0605-10 min",95.6%
same,viability at 10 µM,"A375; A-375, 10 μM, 72 hours, test 0607-10 min",94.4%
same,viability at 10 µM,"A375; A-375, 10 μM, 72 hours, test 0609-10 min",108%
same,viability at 10 µM,"A375; A-375, 72 h, 10 μM, average of tests",104%
same,viability at 10 µM,"NIH-OVCAR-3; OVCAR-3, 10 μM, 72 hours, test 7-3-30 min",90.7%
same,viability at 10 µM,"NIH-OVCAR-3; OVCAR-3, 10 μM, 72 hours, test 7-4-30 min",111%
same,viability at 10 µM,"NIH-OVCAR-3; OVCAR-3, 10 μM, 72 hours, test 7-7-30 min",100%
same,viability at 10 µM,"NIH-OVCAR-3; OVCAR-3, 10 μM, 72 hours, test -4-30 min",111%
same,viability at 10 µM,"NIH-OVCAR-3; OVCAR-3, 72 h, 10 μM, average of tests",103%
same,viability at 10 µM,"U2OS; 72 h, average of tests",77.4%
same,viability at 10 µM,"U2OS; 72 hours, test 6-26-10 min",82.6%
same,viability at 10 µM,"U2OS; 72 hours, test 6-28-10 min",86.7%
same,viability at 10 µM,"U2OS; 72 hours, test 6-30-10 min",64.9%
same,viability at 10 µM,"U2OS; 72 hours, test 7-3-10 min",75.3%
same,viability at 10 µM,"T24; T-24, 10 μM, 72 hours, test T24-1-30 min",71.1%
same,viability at 10 µM,"T24; T-24, 10 μM, 72 hours, test T24-2-20 min",133%
same,viability at 10 µM,"T24; T-24, 10 μM, 72 hours, test T24-3-20 min",177%
same,viability at 10 µM,"T24; T-24, 10 μM, 72 hours, test T24-4-20 min",103%
same,viability at 10 µM,"T24; T-24, 72 h, 10 μM, average of tests",121%
same,viability at 10 µM,"MCF7; MCF7, 10 μM, 72 hours, test 0612-10 min",87.7%
same,viability at 10 µM,"MCF7; MCF7, 10 μM, 72 hours, test 0614-10 min",75.6%
same,viability at 10 µM,"MCF7; MCF7, 10 μM, 72 hours, test 0616-10 min",82.2%
same,viability at 10 µM,"MCF7; MCF7, 10 μM, 72 hours, test 0619-10 min",77.2%
same,viability at 10 µM,"MCF7; MCF7, 72 h, 10 μM, average of tests",80.7%
same,viability at 10 µM,"C-33A; 72 h, average of tests",110%
same,viability at 10 µM,"C-33A; 72 hours, test 0524-10 min",114%
same,viability at 10 µM,"C-33A; 72 hours, test 0526-10 min",119%
same,viability at 10 µM,"C-33A; 72 hours, test 0529-10 min",108%
same,viability at 10 µM,"C-33A; 72 hours, test 0531-10 min",100%
